Test results published in article PMC9127186, “Molecular Basis Underlying Hepatobiliary and Renal Excretion of Phenolic Acids of Salvia miltiorrhiza Roots (Danshen)” (Frontiers in Pharmacology, 2022).

Assays:
human BCRP = target: T1, human BCRP (Homo sapiens, UniProt Q9UNQ0); experiment: Vesicular transport assay, inside-out membrane vesicles expressing human BCRP; details: 10 min
T1 sequence (Q9UNQ0 1-655): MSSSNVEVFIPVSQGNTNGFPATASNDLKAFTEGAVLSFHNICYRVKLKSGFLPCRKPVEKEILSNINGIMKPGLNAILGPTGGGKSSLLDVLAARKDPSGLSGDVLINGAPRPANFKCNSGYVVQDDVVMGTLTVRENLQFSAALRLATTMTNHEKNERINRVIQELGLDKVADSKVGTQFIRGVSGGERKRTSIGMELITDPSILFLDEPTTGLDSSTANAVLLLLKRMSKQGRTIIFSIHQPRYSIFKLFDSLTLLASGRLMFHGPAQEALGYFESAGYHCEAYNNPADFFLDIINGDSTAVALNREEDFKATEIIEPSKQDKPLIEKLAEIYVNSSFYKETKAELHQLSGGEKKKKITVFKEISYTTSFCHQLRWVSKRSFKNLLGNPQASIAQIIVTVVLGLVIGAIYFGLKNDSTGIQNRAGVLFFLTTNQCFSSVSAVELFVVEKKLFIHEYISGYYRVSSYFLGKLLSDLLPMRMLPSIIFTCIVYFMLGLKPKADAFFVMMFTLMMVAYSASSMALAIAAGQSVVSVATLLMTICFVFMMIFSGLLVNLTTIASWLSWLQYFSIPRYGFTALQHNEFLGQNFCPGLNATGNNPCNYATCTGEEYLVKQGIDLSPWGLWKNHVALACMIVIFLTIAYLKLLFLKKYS
Experimental: (§1) Inside-out membrane vesicles (5 mg protein/mL), prepared from insect cells expressing human multidrug resistance-associated protein (MRP) 2, MRP3, MRP4, breast cancer resistance protein (BCRP), bile salt export pump (BSEP), and multidrug resistance protein (MDR) one and rat Mrp2, Mrp4, Bcrp, and Bsep, and vesicles (5 mg protein/mL; prepared from the insect cells expressing no ABC transporter; serving as negative control) were obtained from Genomembrane (Kanazawa, Japan).
(§2) The test Danshen compounds at 100 µM final concentration were separately incubated with the membrane vesicles for 10 min. Buffer C (50 mM MOPS-tris, 70 mM KCl, 7.5 mM MgCl2, pH 7.0) was used for preincubation and incubation, while buffer D (40 mM MOPS-tris, 70 mM KCl, pH 7.0) was used for vesicle washing. The transport rate (pmol/mg protein/min) of the test Danshen compound was calculated using Equation (2): Transport=(CV×VV)/T/WV (2) where C V, V V, T, and W V represent concentration of the compound in vesicular lysates supernatant (μM), volume of the lysates (μL), incubation time (10 min), and amount of vesicle protein amount per well (0.05 mg), respectively. Differential transport of the test Danshen compound between ATP-containing vesicles and AMP-containing vesicles was defined as net transport ratio (TransportATP/TransportAMP ratio). […] All the incubation samples were analyzed by liquid chromatography/mass spectrometry.

rat Mrp2 = rat Mrp2 (Rattus norvegicus, UniProt Q63120); experiment: Vesicular transport assay, inside-out membrane vesicles expressing rat Mrp2; details: for TransportATP/TransportAMP ratio (net transport ratio): 10 min
rat Mrp2, sequence (Q63120 whole entry): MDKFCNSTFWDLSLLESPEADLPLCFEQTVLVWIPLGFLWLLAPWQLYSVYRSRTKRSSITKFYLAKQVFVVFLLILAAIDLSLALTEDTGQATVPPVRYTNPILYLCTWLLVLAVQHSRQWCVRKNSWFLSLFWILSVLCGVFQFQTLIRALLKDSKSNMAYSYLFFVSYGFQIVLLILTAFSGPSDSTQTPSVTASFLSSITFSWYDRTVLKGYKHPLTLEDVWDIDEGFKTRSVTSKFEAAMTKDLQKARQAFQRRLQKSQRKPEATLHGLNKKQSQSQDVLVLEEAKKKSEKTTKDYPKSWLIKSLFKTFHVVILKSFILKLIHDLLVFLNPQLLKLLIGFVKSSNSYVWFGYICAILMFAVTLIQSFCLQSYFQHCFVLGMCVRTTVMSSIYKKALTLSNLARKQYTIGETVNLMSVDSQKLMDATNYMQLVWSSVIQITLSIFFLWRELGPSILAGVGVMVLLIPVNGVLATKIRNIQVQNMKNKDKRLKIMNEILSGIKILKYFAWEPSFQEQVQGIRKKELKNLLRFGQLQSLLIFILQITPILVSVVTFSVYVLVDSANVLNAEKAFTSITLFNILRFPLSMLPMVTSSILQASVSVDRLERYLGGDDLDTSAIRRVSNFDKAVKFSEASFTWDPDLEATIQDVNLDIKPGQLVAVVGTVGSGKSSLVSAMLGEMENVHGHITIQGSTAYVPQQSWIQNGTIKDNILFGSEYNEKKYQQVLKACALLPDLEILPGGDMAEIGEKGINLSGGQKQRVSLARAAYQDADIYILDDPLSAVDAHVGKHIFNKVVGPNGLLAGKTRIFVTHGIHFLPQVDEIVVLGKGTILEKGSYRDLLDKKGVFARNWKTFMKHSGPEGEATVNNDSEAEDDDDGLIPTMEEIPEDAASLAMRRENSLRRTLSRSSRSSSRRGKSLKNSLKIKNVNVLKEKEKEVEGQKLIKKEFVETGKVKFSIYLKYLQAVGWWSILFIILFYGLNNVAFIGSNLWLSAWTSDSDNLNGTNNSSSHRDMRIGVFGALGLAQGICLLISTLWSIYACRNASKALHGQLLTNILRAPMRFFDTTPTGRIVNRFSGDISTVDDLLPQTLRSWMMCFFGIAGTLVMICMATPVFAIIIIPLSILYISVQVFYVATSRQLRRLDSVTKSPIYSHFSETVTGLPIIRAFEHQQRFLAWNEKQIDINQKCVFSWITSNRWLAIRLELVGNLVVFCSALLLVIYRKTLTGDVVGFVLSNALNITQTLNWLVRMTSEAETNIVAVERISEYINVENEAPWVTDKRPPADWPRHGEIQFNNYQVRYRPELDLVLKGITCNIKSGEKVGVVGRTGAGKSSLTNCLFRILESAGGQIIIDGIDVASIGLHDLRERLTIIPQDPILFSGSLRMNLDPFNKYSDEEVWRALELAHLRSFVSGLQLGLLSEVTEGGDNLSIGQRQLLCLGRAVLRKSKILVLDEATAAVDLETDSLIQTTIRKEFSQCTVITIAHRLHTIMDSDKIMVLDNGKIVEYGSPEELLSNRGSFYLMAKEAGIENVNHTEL
Experimental: as §1, §2

human OAT4 = target: T2, human OAT4 (Homo sapiens, UniProt Q9NSA0); experiment: Cellular transport assay, HEK-293 cells expressing human OAT4; details: for TransportTC/TransportMC ratio (net transport ratio): 10 min; for K m: human renal apical uptake OAT4, 5 min incubation, concentrations in Table 1
T2 sequence (Q9NSA0 1-550): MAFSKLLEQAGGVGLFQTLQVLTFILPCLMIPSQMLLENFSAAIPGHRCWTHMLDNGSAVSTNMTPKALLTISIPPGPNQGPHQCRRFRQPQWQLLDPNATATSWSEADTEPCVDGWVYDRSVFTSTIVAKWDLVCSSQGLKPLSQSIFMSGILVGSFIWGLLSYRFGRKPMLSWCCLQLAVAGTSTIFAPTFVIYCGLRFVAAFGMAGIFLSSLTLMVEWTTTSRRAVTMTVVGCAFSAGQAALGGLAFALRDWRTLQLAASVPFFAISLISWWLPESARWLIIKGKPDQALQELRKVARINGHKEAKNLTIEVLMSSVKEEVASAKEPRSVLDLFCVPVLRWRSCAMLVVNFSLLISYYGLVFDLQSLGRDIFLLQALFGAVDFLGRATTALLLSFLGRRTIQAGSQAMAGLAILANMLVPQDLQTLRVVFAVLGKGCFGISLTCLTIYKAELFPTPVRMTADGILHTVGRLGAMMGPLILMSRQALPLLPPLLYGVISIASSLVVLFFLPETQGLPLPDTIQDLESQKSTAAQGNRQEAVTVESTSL

rat Oat2 = target: T3, rat Oat2 (Rattus norvegicus, UniProt Q5RLM2); experiment: Cellular transport assay, HEK-293 cells expressing rat Oat2; details: for TransportTC/TransportMC ratio (net transport ratio): 10 min; for K m: rat hepatic sinusoidal uptake Oat2 (also renal apical), 5 min incubation, concentrations in Table 1
T3 sequence (Q5RLM2 1-535): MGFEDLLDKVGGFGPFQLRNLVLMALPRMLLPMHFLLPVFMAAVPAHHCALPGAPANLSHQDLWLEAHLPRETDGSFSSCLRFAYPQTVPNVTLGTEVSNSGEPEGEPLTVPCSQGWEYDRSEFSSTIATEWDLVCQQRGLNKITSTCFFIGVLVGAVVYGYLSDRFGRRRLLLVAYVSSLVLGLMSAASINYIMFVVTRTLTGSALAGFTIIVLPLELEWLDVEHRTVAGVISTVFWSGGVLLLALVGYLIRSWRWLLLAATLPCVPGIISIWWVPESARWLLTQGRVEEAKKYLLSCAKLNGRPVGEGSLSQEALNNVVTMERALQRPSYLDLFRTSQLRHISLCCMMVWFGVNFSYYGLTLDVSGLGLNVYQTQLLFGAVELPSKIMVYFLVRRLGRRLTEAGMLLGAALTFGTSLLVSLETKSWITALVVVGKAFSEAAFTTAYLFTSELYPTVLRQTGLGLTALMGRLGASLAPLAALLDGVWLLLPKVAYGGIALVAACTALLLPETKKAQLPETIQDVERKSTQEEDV

[1] = Danshen phenolic acid at 100 μM final concentration, human BCRP vesicles
[2] = Danshen phenolic acid at 100 μM final concentration, rat Mrp2 vesicles
[3] = Danshen phenolic acid at 100 μM final concentration, human OAT4-transfected vs mock cells
[4] = Danshen phenolic acid at 100 μM final concentration, rat Oat2-transfected vs mock cells

**Q.** What does the source list for `O=C(/C=C/c1ccc(O)c2c1[C@H](C(=O)O)[C@@H](c1ccc(O)c(O)c1)O2)O[C@H](Cc1ccc(O)c(O)c1)C(=O)O` [Lithospermic acid, lithospermic acid]?
**A.** TransportATP/TransportAMP ratio (net transport ratio) (human BCRP; [1]): 1.12 ± 0.31; TransportATP/TransportAMP ratio (net transport ratio) (rat Mrp2; [2]): 1.83 ± 0.45; TransportTC/TransportMC ratio (net transport ratio) (human OAT4; [3]): 2.91 ± 0.17; TransportTC/TransportMC ratio (net transport ratio) (rat Oat2; [4]): 1.36 ± 0.33

**Q.** With `O=C(O)c1ccc(O)c(O)c1` [Protocatechuic acid, protocatechuic acid] as the molecule, how does the “TransportATP/TransportAMP ratio (net transport ratio)” value (shortened to “TransportATP/TransportAMP ratio”) (human BCRP; [1]) read?
**A.** Its value is 1.04 ± 0.19.

**Q.** What about the “TransportATP/TransportAMP ratio” value (rat Mrp2; [2]) of the same molecule?
**A.** Its value is 0.74 ± 0.13.

**Q.** What about the “TransportTC/TransportMC ratio (net transport ratio)” value (from here on “TransportTC/TransportMC ratio”) (human OAT4; [3]) of the same molecule?
**A.** The value was 1.56 ± 0.46.

**Q.** What about the “substrate of rat Oat2” value (rat Oat2) of the same molecule?
**A.** The value was “substrates”.

**Q.** And the “TransportTC/TransportMC ratio” value (rat Oat2; [4])?
**A.** The value was 163 ± 30.

**Q.** And the microsomal CLint (rat Oat2; rat)?
**A.** The microsomal CLint was 10.9 µL/min/mg.

**Q.** What about the K m (rat Oat2) of the same molecule?
**A.** The K m was 109 ± 6 µM.

**Q.** `O=C(/C=C/c1ccc(O)c(O)c1)O[C@H](Cc1ccc(O)c(O)c1)C(=O)O` [Rosmarinic acid, rosmarinic acid] was tested. Which “TransportATP/TransportAMP ratio” value (human BCRP; human, not told, 100 μM, pH 7) did it give?
**A.** The value was 1.12 ± 0.55.

**Q.** What about the “TransportATP/TransportAMP ratio” value (rat Mrp2; rat, 100 μM, pH 7) of the same molecule?
**A.** Its value is 1.24 ± 0.45.

**Q.** What about the “substrate of human OAT4” value (human OAT4) of the same molecule?
**A.** The value was “relatively weak substrates”.

**Q.** And the K m (human OAT4)?
**A.** The K m was 325 ± 53 µM.

**Q.** And the “TransportTC/TransportMC ratio” value (human OAT4; human, 100 μM)?
**A.** The value was 7.27 ± 0.77.

**Q.** What about the microsomal CLint (human OAT4; human, other cell line) of the same molecule?
**A.** The microsomal CLint was 0.15 µL/min/mg.

**Q.** What about the “substrate of rat Oat2” value (rat Oat2) of the same molecule?
**A.** The value was “substrates”.

**Q.** And the K m (rat Oat2)?
**A.** The K m was 119 ± 15 µM.

**Q.** What about the “TransportTC/TransportMC ratio” value (rat Oat2; rat, 100 μM) of the same molecule?
**A.** Its value is 334 ± 18.

**Q.** And the microsomal CLint (rat Oat2; rat, other cell line)?
**A.** Its microsomal CLint is 5.2 µL/min/mg.

**Q.** `O=C(/C=C/c1ccc(O)c(O)c1/C=C/c1ccc(O)c(O)c1)O[C@H](Cc1ccc(O)c(O)c1)C(=O)O` [Salvianolic acid A, salvianolic acid A] was tested. Which “TransportATP/TransportAMP ratio” value (human BCRP; human, not told, 100 μM, pH 7) did it give?
**A.** The value was 1.12 ± 0.35.

**Q.** And the “TransportATP/TransportAMP ratio” value (rat Mrp2; rat, 100 μM, pH 7)?
**A.** The value was 1.80 ± 0.81.

**Q.** What about the “TransportTC/TransportMC ratio” value (human OAT4; human, 100 μM) of the same molecule?
**A.** Its value is 1.56 ± 0.23.

**Q.** What about the “substrate of rat Oat2” value (rat Oat2) of the same molecule?
**A.** The value was “not substrates”.

**Q.** And the “TransportTC/TransportMC ratio” value (rat Oat2; rat, 100 μM)?
**A.** Its value is 1.41 ± 0.26.

**Q.** How did the “TransportATP/TransportAMP ratio” value (human BCRP; [1]) turn out when `O=C(O)Cc1c(/C=C/C(=O)O[C@H](Cc2ccc(O)c(O)c2)C(=O)O)ccc(O)c1O` [Salvianolic acid D, salvianolic acid D] was run?
**A.** Its value is 2.22 ± 0.61.

**Q.** And the “TransportATP/TransportAMP ratio” value (rat Mrp2; [2])?
**A.** The value was 2.21 ± 0.89.

**Q.** And the “TransportTC/TransportMC ratio” value (human OAT4; [3])?
**A.** The value was 2.87 ± 0.09.

**Q.** And the “substrate of rat Oat2” value (rat Oat2)?
**A.** Its value is “substrates”.

**Q.** What about the “TransportTC/TransportMC ratio” value (rat Oat2; [4]) of the same molecule?
**A.** The value was 50.5 ± 10.7.

**Q.** And the microsomal CLint (rat Oat2; rat)?
**A.** Its microsomal CLint is 2.73 µL/min/mg.

**Q.** And the K m (rat Oat2)?
**A.** Its K m is 60.0 ± 7.2 µM.

**Q.** Which results are given for `O=C(O)C(O)Cc1ccc(O)c(O)c1` (stereo not shown) [Tanshinol, tanshinol]?
**A.** K m (human OAT4): 3,442 ± 940 μM; K m (rat Oat2): 978 ± 123 µM

**Q.** What does the source list for salvianolic acid B?
**A.** TransportATP/TransportAMP ratio (net transport ratio) (human BCRP; [1]): 1.54 ± 0.78; substrate of rat Mrp2 (rat Mrp2): substrate; TransportATP/TransportAMP ratio (net transport ratio) (rat Mrp2; [2]): 4.43 ± 1.12; TransportTC/TransportMC ratio (net transport ratio) (human OAT4; [3]): 0.95 ± 0.23; TransportTC/TransportMC ratio (net transport ratio) (rat Oat2; [4]): 0.92 ± 0.22
